# Test results taken from EP0969089A1, “Phytase formulation” (F. HOFFMANN-LA ROCHE AG, priority 1998, dated 2000).
# Like-named read-outs stand apart in the source and are kept apart here.
# How the values were obtained:
# A. fumigatus phytase = target: T1, A. fumigatus phytase (Aspergillus fumigatus, UniProt O00092); format: biochemical; settings: for effects on the thermostability of the protein: sodium acetate 5, 10 and 25%; for effect on the thermostabilization of A. fumigatus phytase: polyols with more than 6 or less than 5 carbon atoms, 65 °C; for temperature at which considerable activity still being detected: dicarboxylate at 25% (12.5% final concentration in the activity assay); for increase in phytase activity measured at 37 °C: dicarboxylates
# T1 construct: made in house; host or cells: Hansenula polymorpha
# Procedure: (§1) After incubation of the sample for 15 mm at the desired temperature (e.g. at 60 or 65 °C for the screening of additive effects), the reaction was stopped by addition of 0.5 ml 15% trichloroacetic acid. Determination of liberated inorganic phosphate was performed by standard methods.
# (§2) Disodium malonate, succinate and glutarate were dissolved at concentrations of 5, 10 and 25% and phytase activity was measured after preincubation of enzyme plus additive and substrate (see above) at the following temperatures: 37, 45, 50, 55, 60, 65, 70, 75, 80, and 85 °C. In the same way, the temperature dependence of the activity of different phytases in the presence of 25% xylitol and ribitol was tested. It should be noted that the concentration of the additives was reduced by half after substrate addition.
# consensus phytase = experiment: Effect of stabilizing additives on thermostability of consensus phytase; format: biochemical; settings: for increase of thermostability: 25% dicarboxylate
# Procedure: as §1
# Disodium malonate, succinate and glutarate were dissolved at concentrations of 5, 10 and 25% and phytase activity was measured after preincubation of enzyme plus additive and substrate (see above) at the following temperatures: 37, 45, 50, 55, 60, 65, 70, 75, 80, and 85 °C. […] It should be noted that the concentration of the additives was reduced by half after substrate addition.
# [1] = Solubility of polyols in assay buffer; settings: at a concentration of 50% (w/w)
# Procedure: PEGs have been dissolved at a concentration of 50% with the exception of PEGs with a molecular weight of 4000, 8000 and 10000 which were used at a concentration of 25%. For the screening of PEGs and other polyols, the preincubation and reaction temperature was chosen as 60 °C for A. nidulans and A. terreus CBS phytase, 65 °C for A. fumigatus and A. niger phytase and 75 °C for consensus phytase.
# A. niger phytase = target: T2, A. niger phytase (Aspergillus niger, UniProt P34752); experiment: Effect of stabilizing additives on thermostability of A. niger phytase; format: biochemical; settings: 25% dicarboxylate
# T2 construct: made in house; host or cells: Aspergillus niger
# Procedure: as §1, §2
# A. terreus CBS phytase = target: T3, A. terreus CBS phytase (Aspergillus terreus, UniProt O00100); experiment: Effect of stabilizing additives on thermostability of A. terreus CBS phytase; format: biochemical; settings: 25% dicarboxylate
# T3 construct: made in house; host or cells: Hansenula polymorpha
# Procedure: as §1, §2
# A. nidulans phytase = target: T4, A. nidulans phytase (Emericella nidulans, UniProt O00093); experiment: Effect of stabilizing additives on thermostability of A. nidulans phytase; format: biochemical, Aspergillus nidulans; settings: 25% dicarboxylate
# T4 construct: made in house; host or cells: Aspergillus niger
# Procedure: as §1, §2
# [2] = in the presence of 50% solutions of polyol
# [3] = polyol at a concentration of 12.5%
# [4] = polyol at a concentration of 25%
# T1 sequence (O00092 27-465): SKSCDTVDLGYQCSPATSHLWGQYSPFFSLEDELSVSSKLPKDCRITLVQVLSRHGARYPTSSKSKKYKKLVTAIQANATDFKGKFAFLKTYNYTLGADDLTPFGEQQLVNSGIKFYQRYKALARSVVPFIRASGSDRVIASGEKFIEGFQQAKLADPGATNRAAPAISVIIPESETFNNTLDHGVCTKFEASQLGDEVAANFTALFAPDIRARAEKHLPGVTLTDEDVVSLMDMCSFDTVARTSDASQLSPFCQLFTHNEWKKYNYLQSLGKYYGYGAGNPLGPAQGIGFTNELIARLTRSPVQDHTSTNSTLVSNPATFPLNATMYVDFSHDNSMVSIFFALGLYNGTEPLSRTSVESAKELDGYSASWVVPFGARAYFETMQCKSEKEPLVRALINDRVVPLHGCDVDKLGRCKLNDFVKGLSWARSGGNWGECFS
# T2 sequence (P34752 24-467): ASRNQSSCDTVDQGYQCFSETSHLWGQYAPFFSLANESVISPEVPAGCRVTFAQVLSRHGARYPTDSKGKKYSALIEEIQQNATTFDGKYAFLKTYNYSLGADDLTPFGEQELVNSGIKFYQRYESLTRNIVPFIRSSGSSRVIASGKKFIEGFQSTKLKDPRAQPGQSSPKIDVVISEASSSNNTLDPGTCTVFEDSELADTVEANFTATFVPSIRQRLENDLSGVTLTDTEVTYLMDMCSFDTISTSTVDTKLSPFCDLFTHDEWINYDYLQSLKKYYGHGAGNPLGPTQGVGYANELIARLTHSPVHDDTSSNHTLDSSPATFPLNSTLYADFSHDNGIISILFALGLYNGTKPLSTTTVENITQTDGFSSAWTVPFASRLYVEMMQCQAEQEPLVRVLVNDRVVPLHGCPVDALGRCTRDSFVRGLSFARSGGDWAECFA
# T3 sequence (O00100 20-466): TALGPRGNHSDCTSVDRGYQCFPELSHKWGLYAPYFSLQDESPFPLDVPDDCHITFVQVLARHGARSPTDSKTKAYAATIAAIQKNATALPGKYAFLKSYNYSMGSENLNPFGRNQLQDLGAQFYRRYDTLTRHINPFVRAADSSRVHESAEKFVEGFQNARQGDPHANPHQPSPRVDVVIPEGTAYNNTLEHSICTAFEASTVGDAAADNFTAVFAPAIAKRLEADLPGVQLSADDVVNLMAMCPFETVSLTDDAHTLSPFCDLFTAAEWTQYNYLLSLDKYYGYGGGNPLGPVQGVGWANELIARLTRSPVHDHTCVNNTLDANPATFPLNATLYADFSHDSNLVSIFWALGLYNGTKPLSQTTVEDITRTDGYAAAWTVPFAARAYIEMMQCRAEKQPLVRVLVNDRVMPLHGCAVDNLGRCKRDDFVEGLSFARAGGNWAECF
# T4 sequence (O00093 20-463): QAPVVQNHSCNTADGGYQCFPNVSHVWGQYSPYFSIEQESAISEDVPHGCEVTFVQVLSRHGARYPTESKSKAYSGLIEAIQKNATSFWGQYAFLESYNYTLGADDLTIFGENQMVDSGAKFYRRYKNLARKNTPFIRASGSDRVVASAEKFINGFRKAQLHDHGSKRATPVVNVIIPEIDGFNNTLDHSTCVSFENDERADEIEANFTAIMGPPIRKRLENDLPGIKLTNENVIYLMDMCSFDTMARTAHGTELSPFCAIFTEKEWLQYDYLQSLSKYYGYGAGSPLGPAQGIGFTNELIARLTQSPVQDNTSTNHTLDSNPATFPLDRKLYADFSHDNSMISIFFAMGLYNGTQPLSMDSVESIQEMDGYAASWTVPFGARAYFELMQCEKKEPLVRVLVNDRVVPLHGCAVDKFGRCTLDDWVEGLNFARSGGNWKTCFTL
compound,measurement,setting,value
CC(=O)O [sodium acetate],effects on the thermostability of the protein,A. fumigatus phytase,only minor effects
same,effects on the thermostability of the protein,A. fumigatus phytase; listed as Sodium acetate,no effect
OC[C@@H](O)[C@H](O)[C@@H](O)CO [xylitol],increase of temperature optimum,consensus phytase; xylitol 50%,10-15 °C
same,specific activities measured at 65 °C,A. fumigatus phytase; in the presence of 25% polyol,21 U*(mg protein)^-1
same,specific activities measured at 65 °C,A. fumigatus phytase; [2],90 U*(mg protein)^-1
same,specific activity measured at 65 °C,A. fumigatus phytase; [3],11-12 U/mg
same,specific activity measured at 65 °C,A. fumigatus phytase; [4],51-90 U/mg
O=C(CO)[C@@H](O)[C@@H](O)[C@H](O)[C@H](O)CO [mannoheptulose],"solubility in 0.2 M sodium acetate, pH 5.0",[1],not soluble
same,effect on the thermostabilization of A. fumigatus phytase,A. fumigatus phytase,inferior effect
"O=C(O)CCC(=O)O [succinate, disodium succinate]",increase of thermostability,A. niger phytase,5-15 °C
same,increase of thermostability,consensus phytase,5-15 °C
same,increase of thermostability,A. terreus CBS phytase,5-15 °C
same,increase of thermostability,A. nidulans phytase,5-15 °C
same,temperature at which considerable activity still being detected,A. fumigatus phytase,65 °C
same,increase in phytase activity measured at 37 °C,A. fumigatus phytase,2 fold
OC[C@@H](O)[C@@H](O)[C@H](O)[C@@H](O)CO [sorbitol],specific activities measured at 65 °C,A. fumigatus phytase; in the presence of 25% polyol,11 U*(mg protein)^-1
same,specific activities measured at 65 °C,A. fumigatus phytase; [2],74 U*(mg protein)^-1
"O=C(O)CC(=O)O [malonate, disodium malonate]",increase of thermostability,A. niger phytase,5-15 °C
same,increase of thermostability,consensus phytase,5-15 °C
same,increase of thermostability,A. terreus CBS phytase,5-15 °C
same,increase of thermostability,A. nidulans phytase,5-15 °C
same,temperature at which considerable activity still being detected,A. fumigatus phytase,70 °C
same,increase in phytase activity measured at 37 °C,A. fumigatus phytase,approximately 4 fold
O=C[C@@H](O)[C@@H](O)[C@H](O)[C@H](O)[C@H](O)CO [mannoheptose],"solubility in 0.2 M sodium acetate, pH 5.0",[1],not soluble
same,effect on the thermostabilization of A. fumigatus phytase,A. fumigatus phytase,inferior effect
OC[C@@H](O)[C@@H](O)CO [erythritol],"solubility in 0.2 M sodium acetate, pH 5.0",[1],not soluble
same,effect on the thermostabilization of A. fumigatus phytase,A. fumigatus phytase,inferior effect
OC[C@@H](O)[C@@H](O)[C@@H](O)CO [ribitol],specific activities measured at 65 °C,A. fumigatus phytase; in the presence of 25% polyol,11 U*(mg protein)^-1
same,specific activities measured at 65 °C,A. fumigatus phytase; [2],51 U*(mg protein)^-1
same,specific activity measured at 65 °C,A. fumigatus phytase; [3],11-12 U/mg
same,specific activity measured at 65 °C,A. fumigatus phytase; [4],51-90 U/mg
OCC(O)CO [glycerol],effect on the thermostabilization of A. fumigatus phytase,A. fumigatus phytase,inferior effect
